Measured values from paper PMC9363195, “Preclinical Pharmacokinetics, Biodistribution, and Acute Toxicity Evaluation of Caerin 1.9 Peptide in Sprague Dawley Rats” (Evidence-based Complementary and Alternative Medicine : eCAM, 2022).
“Also recorded” adds a separate entry of the source. Like-named read-outs stand apart in the source and are kept apart here. Peptide text beside a SMILES is read from it.

What was measured:
Type in all cases: in vivo, Sprague Dawley rats
SD rats [1] = assay: Functional observation (mortality, clinical signs) in acute toxicity study; conditions: for mortality: single s.c. 1.0, 10.0, 100 mg/kg or 10.0 mg/kg daily x14 d, cage observation
Protocol: The mortality, general health status, and toxic reaction symptoms of the experimental groups were documented. Before the first day of F3 administration and during the experiments, a detailed clinical observation was carried out and recorded the changes in skin, eyes and mucous membrane, respiratory system, nervous system, activity, and behaviors of the rats. The body weight was measured and recorded before the first day of administration.
Forty SD rats (20 males and 20 females) were randomly divided into 4 groups (Figure 1). All rats were given F3 once on the day of the experiment.
Twelve SD rats (6 males, 6 females) were given a daily subcutaneous injection of F3 at a dose of 10.0 mg/kg for consecutive 14 days. The first day of administration was recorded as day 1.

[2] = Pharmacokinetics of single subcutaneous injection of F3 (1.0 mg/kg); conditions: single s.c. 1.0 mg/kg, plasma, LC-MS/MS; for AUC(0-inf) / AUC(0-t) / Cmax / Tmax / half-life / CL/F / MRT: Sprague-Dawley, rat, sc; for CL/F: read-out: Cl_F_obs (clearance rate) (converted); for MRT: read-out: MRTInf_obs (mean residence time)
Protocol: A single subcutaneous injection of 1.0 mg/kg F3 was given to a total of 12 SD rats (6 females, 6 males). Before and after F3 administration, whole blood samples were collected at predetermined time intervals (0, 0.5, 1, 2, 4, 6, 8, 24, 48, 72, 96, 144, and 192 hr). At each time point, at least 0.5 ml blood samples were taken alternatively from 3M/3F rats.
(§1) The concentration of F3 in rat plasma was determined by liquid chromatography-tandem mass spectrometry, using the method established by Kanglong Huacheng Co., Ltd. The analyte was assayed by liquid chromatography coupled with the tandem mass spectrometry (LC-MS/MS) method. The LC-MS/MS system consisted of a Shimadzu HPLC system (Kyoto, Japan) and an LCMS-8060 instrument (serial no. 011105500332 AE). The following were the LC conditions: column, HALO ES-C18 2.7 µ C18 160A (50 × 2.1 mm); gradient elution at 0.5 mL/min with 5% acetonitrile in water containing 0.1% formic acid or 95% acetonitrile in water containing 0.1% formic acid; and injection volume of 10 µL. A multiple reaction monitoring (MRM) method was selected for quantitative analysis. For analyte and internal standard, the optimum transitions were 519.50 > 129.15 (five charges) and 649.15 > 120.10 (four charges), 393.20 > 373.25, and 237.15 > 194.15, respectively. The instrumental parameters were set as follows: nebulizing gas flow was 3 L/min; heating gas flow was 10 L/min; interface temperature was 300°C; DL temperature was 250°C; and heat block temperature was 400°C.
PK parameters were estimated by a noncompartmental model with the calculation model of “Linear Trapezoidal Linear Interpolation” using WinNonlin (Phoenix TM, version 8.1). If the plasma F3 was detected, the following pharmacokinetic parameters were measured and calculated: Cmax (maximum blood concentration), Tmax (peak time), T1/2 (elimination half-life), AUC (area under plasma concentration-time curve), Vz_F_obs (apparent distribution volume), Cl_F_obs (clearance rate), and MRTInf_obs (mean residence time).

[3] = Tissue distribution of single subcutaneous injection of F3 (1.0 mg/kg); conditions: LC-MS/MS; for F3 in tissue samples (heart, brain, liver, kidney, lung, spleen, stomach, small intestine, testis, ovaries, subcutaneous fat, skeletal muscle): single s.c. 1.0 mg/kg, 1, 2, 4, 8, 24, 48 h, LOQ in tissues 40–80 ng/g; for level at 4 h / level at 1 h / level at 2 h: Sprague-Dawley, rat, plasma, sc, n=3, read-out: F3 concentration in plasma; for level at 4 h: 4th hr; for level at 1 h: 1 hour after administration; for level at 2 h: mean
Protocol: as §1
Thirty-six SD rats (18 females, 18 males) were randomly selected and given a single subcutaneous injection of F3 at 1.0 mg/kg. Tissue samples were collected at 1, 2, 4, 8, 24, and 48 hours after F3 administration. At each time point, six rats (3 of each sex) were sacrificed. At least 0.5 ml of whole blood was collected before euthanasia, and 0.5–1.0 g of tissue was collected after euthanasia. The heart, brain, liver, kidney, lung, spleen, stomach, small intestine, testis, ovary, subcutaneous fat, and skeletal muscle were among the tissue types studied.
The desired serial concentrations of working solutions were achieved by diluting stock solution (1 mg/mL in DMSO) of analyte with 50% acetonitrile in water. 5 μL of working solutions (10 to 10000 ng/mL) were added to 50 μL of the blank rat plasma and tissues to achieve calibration standards or quality control (QC) samples of 1 to 1000 ng/mL in a total volume of 55 μL.
The resulting standard, QC, or study samples were added to 200 μL of methanol containing IS (50 ng/mL dexamethasone, 2 ng/mL verapamil and 2 ng/mL carbamazepine as internal standard (IS) for protein precipitation. All samples were then vortexed for 30 seconds. After centrifugation at 4°C and 4000 rpm (ca. 3740 x g) for 15 minutes, 100 µL of the supernatant was diluted with 200 µL of water for injection on LC-MS/MS.

SD rats [4] = assay: Food intake and body weight gain in acute toxicity study; conditions: single or repeated s.c. injection
Protocol: For 14 days, the body weight was measured before F3 administration on the first day of the experiment and once a week thereafter, with additional measurements on the day before and on the day of the planned autopsy. Food intake was recorded once a week. The rats were anesthetized by inhalation of 70% CO2/30% O2 before dissection, and blood samples were taken for hematology and biochemical analysis. The collected tissue was weighed and preserved for pathological examination.

[5] = female SD rats, single s.c. 1.0 mg/kg
[6] = male SD rats, single s.c. 1.0 mg/kg

In the case of CC[C@H](C)[C@H](NC(=O)[C@H](CO)NC(=O)CNC(=O)[C@H](CC(C)C)NC(=O)[C@@H](NC(=O)CNC(=O)[C@H](Cc1ccccc1)NC(=O)[C@H](CC(C)C)NC(=O)CN)C(C)C)C(=O)N[C@@H](C)C(=O)N[C@@H](CCCCN)C(=O)N[C@@H](Cc1c[nH]cn1)C(=O)N[C@H](C(=O)N[C@@H](CC(C)C)C(=O)N1CCC[C@H]1C(=O)N[C@@H](Cc1c[nH]cn1)C(=O)N[C@H](C(=O)N[C@H](C(=O)N1CCC[C@H]1C(=O)N[C@H](C(=O)N[C@H](C(=O)N[C@@H](C)C(=O)N[C@@H](CCC(=O)O)C(=O)N[C@@H](CCCCN)C(=O)N[C@@H](CC(C)C)C(N)=O)[C@@H](C)CC)C(C)C)C(C)C)C(C)C)C(C)C [F3, Caerin 1.9] (H-GLFGVLGSIAKHVLPHVVPVIAEKL-NH2), the “clinical observation: scabs at the injection site” value (SD rats [1]; s.c. 10.0 mg/kg daily x14 d, 6 M/6 F) is reported as “scabs were discovered at the injection site in one female rat, three female rats, and two male rats on the 8th, 12th, and 15th days, respectively”, the “clinical observation (fur, eyes, mucosa, respiratory, circulatory, nervous system, behaviors)” value (SD rats [1]; single s.c. 1.0 mg/kg or 10.0 mg/kg) is reported as “no abnormalities” and the “clinical observation: dorsal scabs” value (SD rats [1]; single s.c. 100.0 mg/kg, 5 M/5 F) is reported as “one male and two female rats on day 8 and two female rats on day 15 developed dorsal scabs”. The mortality (SD rats [1]) was “no rats receiving F3 were found dead or dying; also recorded: No dead or dying rats were observed”, the mortality (SD rats [1]; listed as Caerin 1.9) was “does not cause mortality or organ malfunction” and the AUC(0-inf) ([2]; female SD rats) was 222 ng·h/mL. For the same compound, the AUC(0-t) ([2]; female SD rats) was 216 ng·h/mL, the Cmax ([2]; female SD rats) was 110 ng/mL and the Tmax ([2]; female SD rats) was 0.5 h. It also gave a half-life ([2]; female SD rats) of 0.677 h, a CL/F ([2]; female SD rats) of 75.1 mL/min/kg and an MRT ([2]; female SD rats) of 1.42 h. It also gave an AUC(0-inf) ([2]; male SD rats) of 686 ng·h/mL, an AUC(0-t) ([2]; male SD rats) of 661 ng·h/mL and a Cmax ([2]; male SD rats) of 256 ng/mL. The Tmax ([2]; male SD rats) was 1 h, the half-life ([2]; male SD rats) was 1.16 h and the CL/F ([2]; male SD rats) was 24.3 mL/min/kg. For the same compound, the MRT ([2]; male SD rats) was 2.05 h, the AUC_%Extrap_obs ([2]; female SD rats) was 2.88% and the T max ([2]; female SD rats) was 0.5 h. For the same compound, the T max ([2]; male SD rats) was 1 h, the “F3 in tissue samples (heart, brain, liver, kidney, lung, spleen, stomach, small intestine, testis, ovaries, subcutaneous fat, skeletal muscle)” value ([3]; SD rats, 1 mg/kg) was “No detectable F3” and the “F3 in tissue samples (heart, brain, liver, kidney, lung, spleen, stomach, small intestine, testis, ovaries, subcutaneous fat, skeletal muscle)” value ([3]; SD rats, listed as Caerin 1.9, 1 mg/kg) was under 40 ng/g. For the same compound, the “F3 in plasma samples collected at other time points” value ([3]; SD rats, single s.c. 1.0 mg/kg, time points other than 1, 2, 4 h (8, 24, 48 h)) was “No detectable F3”, the level at 4 h [3, 5] was 19.4 ± 5.96 ng/mL and the level at 1 h [3, 5] was 174 ± 43 ng/mL. For the same compound, the level at 2 h [3, 5] was 49.7 ± 1.71 ng/mL, the level at 4 h [3, 6] was 20 ± 9.73 ng/mL and the level at 1 h [3, 6] was 165 ± 46.5 ng/mL. The level at 2 h [3, 6] was 104 ± 25.5 ng/mL and the “effect on food intake, body weight, and weight change” value (SD rats [4]) was “no effect”.
